Source: PubChem BioAssay AID248 (DTP/NCI, 2004)
Inconclusive results and toxic doses are left out. Rule as the data show it: active = T/C of 150% or more; inactive = T/C below 125%.

Tested on: L1210 leukemia ip in BDF1 mice, survival T/C
Experiment: NCI In Vivo Anticancer Drug Screen. Data for tumor model L1210 Leukemia (intraperitoneal) in B6D2F1 (BDF1) mice
Details: endpoint: mean survival time, higher = longer survival
Procedure, shortened: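 Antitumor effect is assessed in tumor-bearing animals. Survival in the compound arm is compared with a vehicle-dosed control arm and expressed as their quotient.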

[1] = dose: 100.0 mg/kg/injection, schedule: Q01DX009 (ip), vehicle: Klucel (hydroxypropylcellulose) (HPC)
[2] = dose: 100.0 mg/kg/injection, schedule: Q04DX003 (ip), vehicle: Klucel (hydroxypropylcellulose) (HPC)
[3] = dose: 200.0 mg/kg/injection, schedule: Q04DX003 (ip), vehicle: Klucel (hydroxypropylcellulose) (HPC)
[4] = dose: 400.0 mg/kg/injection, schedule: Q01DX009 (ip), vehicle: Klucel (hydroxypropylcellulose) (HPC)
[5] = dose: 400.0 mg/kg/injection, schedule: Q04DX003 (ip), vehicle: Klucel (hydroxypropylcellulose) (HPC)
[6] = dose: 200.0 mg/kg/injection, schedule: Q01DX009 (ip), vehicle: Klucel (hydroxypropylcellulose) (HPC)
[7] = dose: 100.0 mg/kg/injection, schedule: Q01DX001 (ip), vehicle: Klucel (hydroxypropylcellulose) (HPC)
[8] = dose: 200.0 mg/kg/injection, schedule: Q01DX001 (ip), vehicle: Klucel (hydroxypropylcellulose) (HPC)
[9] = dose: 400.0 mg/kg/injection, schedule: Q01DX001 (ip), vehicle: Klucel (hydroxypropylcellulose) (HPC)
[10] = dose: 100.0 mg/kg/injection, schedule: Q01DX009 (ip), vehicle: saline
[11] = dose: 100.0 mg/kg/injection, schedule: Q04DX003 (ip), vehicle: saline
[12] = dose: 200.0 mg/kg/injection, schedule: Q01DX009 (ip), vehicle: saline
[13] = dose: 200.0 mg/kg/injection, schedule: Q04DX003 (ip), vehicle: saline
[14] = dose: 400.0 mg/kg/injection, schedule: Q01DX009 (ip), vehicle: saline
[15] = dose: 400.0 mg/kg/injection, schedule: Q04DX003 (ip), vehicle: saline
[16] = dose: 100.0 mg/kg/injection, schedule: Q01DX001 (ip), vehicle: saline
[17] = dose: 200.0 mg/kg/injection, schedule: Q01DX001 (ip), vehicle: saline
[18] = dose: 400.0 mg/kg/injection, schedule: Q01DX001 (ip), vehicle: saline

Measured: T/C

CCCCCCCCCC(=O)CCCCC
inactive: dose: 100.0 mg/kg/injection, schedule: Q01DX009 (ip), vehicle: other 100 % of control | dose: 200.0 mg/kg/injection, schedule: Q01DX009 (ip), vehicle: other 98 % of control | dose: 400.0 mg/kg/injection, schedule: Q01DX009 (ip), vehicle: other 93 % of control

O=C1OCC/C1=C/OS(=O)(=O)C(F)(F)F
inactive: dose: 12.5 mg/kg/injection, schedule: Q01DX009 (ip), vehicle: water 105 % of control | dose: 25.0 mg/kg/injection, schedule: Q01DX009 (ip), vehicle: water 106 % of control | dose: 50.0 mg/kg/injection, schedule: Q01DX009 (ip), vehicle: water 105 % of control | dose: 100.0 mg/kg/injection, schedule: Q01DX009 (ip), vehicle: water 104 % of control

CCOc1ccc(NC(=O)Nc2cccc(Cl)c2)cc1
inactive: [1] 103 % of control | [2] 95 % of control | [3] 103 % of control | [4] 87 % of control | [5] 100 % of control

COc1ccccc1C=O
inactive: [1] 90 % of control | [6] 90 % of control | [4] 106 % of control

CNC(=O)O/N=C(C)/C(C)=N/OC(=O)NC
inactive: dose: 100.0 mg/kg/injection, schedule: Q01DX001 (ip), vehicle: other 93 % of control | dose: 200.0 mg/kg/injection, schedule: Q01DX001 (ip), vehicle: other 87 % of control | dose: 400.0 mg/kg/injection, schedule: Q01DX001 (ip), vehicle: other 87 % of control

CCOC(=O)c1cnc(SC)nc1NNc1ccc([N+](=O)[O-])cc1
inactive: dose: 100.0 mg/kg/injection, schedule: Q01DX001 (ip), vehicle: saline with Tween-80 90 % of control | dose: 200.0 mg/kg/injection, schedule: Q01DX001 (ip), vehicle: saline with Tween-80 92 % of control

COC(=O)C(N)=O
inactive: dose: 100.0 mg/kg/injection, schedule: Q01DX001 (ip), vehicle: steriod suspending solution 115 % of control | dose: 100.0 mg/kg/injection, schedule: Q04DX002 (ip), vehicle: Klucel (hydroxypropylcellulose) (HPC) 100 % of control | dose: 200.0 mg/kg/injection, schedule: Q01DX001 (ip), vehicle: steriod suspending solution 121 % of control | dose: 200.0 mg/kg/injection, schedule: Q04DX002 (ip), vehicle: Klucel (hydroxypropylcellulose) (HPC) 106 % of control | dose: 400.0 mg/kg/injection, schedule: Q01DX001 (ip), vehicle: steriod suspending solution 106 % of control | dose: 400.0 mg/kg/injection, schedule: Q04DX002 (ip), vehicle: Klucel (hydroxypropylcellulose) (HPC) 106 % of control

Cc1ncc(C(C)(O)c2ccc(Cl)cc2)n1Cc1ccccc1 (stereo not given)
inactive: [7] 112 % of control | [1] 92 % of control | [2] 92 % of control | [8] 98 % of control | [6] 89 % of control | [3] 88 % of control | [9] 118 % of control | [4] 92 % of control | [5] 92 % of control

CCOC(=O)CCN1CC(C)OC(C)C1 (stereo not given)
inactive: [10] 97 % of control | [11] 93 % of control | [12] 97 % of control | [13] 102 % of control | [14] 103 % of control | [15] 111 % of control

C/C=C/c1ccc2ccccc2c1
inactive: dose: 100.0 mg/kg/injection, schedule: Q01DX001 (ip), vehicle: carboxymethylcellulose (CMC) 104 % of control | dose: 200.0 mg/kg/injection, schedule: Q01DX001 (ip), vehicle: carboxymethylcellulose (CMC) 96 % of control | dose: 400.0 mg/kg/injection, schedule: Q01DX001 (ip), vehicle: carboxymethylcellulose (CMC) 104 % of control

CCOC(=O)c1cnc(SC)nc1Nc1cccc([N+](=O)[O-])c1
inactive: [1] 110 % of control | [2] 97 % of control | [6] 97 % of control | [3] 98 % of control | [4] 95 % of control | [5] 95 % of control

CN1CC2(Cc3ccccc3)c3ccccc3NC2(NC(=O)CCl)C1=O (stereo not given)
inactive: dose: 25.0 mg/kg/injection, schedule: Q04DX002 (ip), vehicle: saline with Tween-80 87 % of control | dose: 50.0 mg/kg/injection, schedule: Q04DX002 (ip), vehicle: saline with Tween-80 90 % of control | dose: 100.0 mg/kg/injection, schedule: Q04DX002 (ip), vehicle: saline with Tween-80 91 % of control

Nc1cccc(OCCCCCOc2cccc(N)c2)c1
inactive: [1] 93 % of control | [6] 96 % of control

COc1ccc([N+](=O)[O-])cc1/C=C/C=O
inactive: [16] 100 % of control | [17] 92 % of control | [18] 100 % of control

CCOC(=O)c1cc(=O)[nH]c2cc(N)ccc12
inactive: [1] 86 % of control | [6] 89 % of control | [4] 86 % of control

CC(C)(C)CC(N)=O
inactive: [16] 106 % of control | [10] 101 % of control | [2] 117 % of control | [11] 103 % of control | dose: 133.0 mg/kg/injection, schedule: Q01DX009 (ip), vehicle: Klucel (hydroxypropylcellulose) (HPC) 111 % of control | dose: 133.0 mg/kg/injection, schedule: Q04DX003 (ip), vehicle: Klucel (hydroxypropylcellulose) (HPC) 123 % of control | [17] 97 % of control | [6] 111 % of control | [12] 89 % of control | [3] 124 % of control | [13] 97 % of control | dose: 300.0 mg/kg/injection, schedule: Q01DX009 (ip), vehicle: Klucel (hydroxypropylcellulose) (HPC) 105 % of control | dose: 300.0 mg/kg/injection, schedule: Q04DX003 (ip), vehicle: Klucel (hydroxypropylcellulose) (HPC) 98 % of control | [18] 103 % of control | [14] 97 % of control | [5] 109 % of control | [15] 103 % of control

CCSc1ccc2c(cc1=O)C(N)CCc1cc(OC)c(OC)c(OC)c1-2 (stereo not given)
inactive: dose: 12.5 mg/kg/injection, schedule: Q04DX002 (ip), vehicle: saline 107 % of control | dose: 25.0 mg/kg/injection, schedule: Q04DX002 (ip), vehicle: saline 95 % of control | dose: 50.0 mg/kg/injection, schedule: Q04DX002 (ip), vehicle: saline 98 % of control

CC(C)(C)C1=CC(=O)C=C(C(C)(C)C)C1=O
inactive: [7] 89 % of control | [8] 92 % of control | [3] 87 % of control | [9] 100 % of control | [5] 89 % of control

O=C(Nc1ccc(CCO)cc1)Nc1ccccc1F
inactive: [1] 97 % of control | [6] 88 % of control | [4] 111 % of control

O=C1NC(=S)NC(=O)C1=Cc1ccncc1
inactive: [16] 105 % of control | [17] 102 % of control | [18] 98 % of control

COc1ccc2c(=O)c3ccccc3oc2c1
inactive: [11] 101 % of control | [13] 101 % of control | [15] 103 % of control

Cc1ccc(S(=O)(=O)CCCl)cc1
inactive: [2] 96 % of control | [3] 100 % of control

CCOC(CNC(=O)c1ccc(S(=O)(=O)F)cc1)OCC
inactive: dose: 100.0 mg/kg/injection, schedule: Q04DX003 (ip), vehicle: alcohol 107 % of control | dose: 200.0 mg/kg/injection, schedule: Q04DX003 (ip), vehicle: alcohol 101 % of control | dose: 400.0 mg/kg/injection, schedule: Q04DX003 (ip), vehicle: alcohol 98 % of control
